Measured values published in patent US20220249376A1, “NANOVESICLES AND ITS USE FOR NUCLEIC ACID DELIVERY” (FUNDACIÓ HOSPITAL UNIVERSITARI VALL D'HEBRON - INSTITUT DE …, priority 2019, published 2022).

Tested on: miR-323a-5p
Assay: miR-323a-5p expression levels by qPCR after transfection
Assay type: cell-based
Conditions: SK-N-BE(2), miRNA 50 nM
Description: For in vitro experiments, SK-N-BE(2) neuroblastoma cells were reverse transfected with the addition of the QS-sRNA complexes to complete cell culture medium (IMDM, 10% heat-inactivated foetal bovine serum (FBS) South America Premium (Biowest, Nuaillé, France)) without antibiotics. After overnight (o/n) incubation media was changed for IMDM supplemented with 10% FBS and antibiotics.
Total RNA including small RNAs was extracted using the miRNeasy Mini Kit (Qiagen, Las Matas, Spain). mRNAs were reverse transcribed (0.5 μg total RNA) using Taqman RT kit (#4366596; Applied Biosystems, Thermo Fisher Scientific), and mature miRNA expression analysis was quantified using Taqman microRNA assays (#4440047; Applied Biosystems, Thermo Fisher Scientific) following manufacturer's recommendations. cDNA was quantified by standard RT-qPCR methodology using 2× Power SYBR Green Master Mix (Applied Biosystems, Thermo Fisher Scientific) using the ABI700SDS equipment. […] The relative fold-change Relative quantification of gene expression was performed with a comparative 2^(−ΔΔCT) method (Livak K J, Schmittgen T D. Analysis of relative gene expression data using real-time quantitative PCR and the 2(−Delta Delta C(T)) method. Methods 2001; 25: 402-408).
The RNU44 is as a housekeeping gene, commonly used to normalize the smallRNA content in the analyzed samples. […]

miRNA naked: miRIDIAN hsa-miR-323a-5p mimic AGGUGGUCCGUGGCGCGUUCGC (SEQ ID NO: 1), not complexed (listed as RNA, chemistry not given here)
miR-323a-5p expression levels: could not increase
